Reference: the kinase profiling compilation of Christmann-Franck et al. (2016)

Experiments:
Experiment in all cases: radiometric filter-binding kinase assay, Kinase HotSpot
Conditions in all cases: compound 0.5 µM; ATP 10 µM
AKT2 (human) = AKT2 (human) (UniProt P31751)
BMX (human) = BMX (human) (UniProt P51813)
BRSK1 (human) = BRSK1 (human) (UniProt Q8TDC3)
CAMK2D (human) = CAMK2D (human) (UniProt Q13557)
CDK1 CCNB1 (human) = CDK1 CCNB1 (human) (UniProt P06493+P14635)
CDK5 CDK5R1 p25 (human) = CDK5 CDK5R1 p25 (human) (UniProt Q00535+Q15078)
CLK4 (human) = CLK4 (human) (UniProt Q9HAZ1)
CSNK1D (human) = CSNK1D (human) (UniProt P48730)
DAPK2 (human) = DAPK2 (human) (UniProt Q9UIK4)
DSTYK (human) = DSTYK (human) (UniProt Q6XUX3)
EPHA4 (human) = EPHA4 (human) (UniProt P54764)
EPHB1 (human) = EPHB1 (human) (UniProt P54762)
GRK7 (human) = GRK7 (human) (UniProt Q8WTQ7)
GSK3A (human) = GSK3A (human) (UniProt P49840)
INSR (human) = INSR (human) (UniProt P06213)
LIMK1 (human) = LIMK1 (human) (UniProt P53667)
LRRK2 (human) = LRRK2 (human) (UniProt Q5S007)
MAP2K2 (human) = MAP2K2 (human) (UniProt P36507)
MAP3K8 (human) = MAP3K8 (human) (UniProt P41279)
MST4 (human) = MST4 (human) (UniProt Q9P289)
NEK11 (human) = NEK11 (human) (UniProt Q8NG66)
NEK4 (human) = NEK4 (human) (UniProt P51957)
NTRK1 (human) = NTRK1 (human) (UniProt P04629)
NUAK2 (human) = NUAK2 (human) (UniProt Q9H093)
PAK1 (human) = PAK1 (human) (UniProt Q13153)
PDGFRB (human) = PDGFRB (human) (UniProt P09619)
PRKCG (human) = PRKCG (human) (UniProt P05129)
PRKCI (human) = PRKCI (human) (UniProt P41743)
PRKCZ (human) = PRKCZ (human) (UniProt Q05513)
PTK2 (human) = PTK2 (human) (UniProt Q05397)
PTK2B (human) = PTK2B (human) (UniProt Q14289)
PTK6 (human) = PTK6 (human) (UniProt Q13882)
RPS6KA2 KD1 KD2 (human) = RPS6KA2 KD1 KD2 (human) (UniProt Q15349)
SGK2 (human) = SGK2 (human) (UniProt Q9HBY8)
SRC (human) = SRC (human) (UniProt P12931)
SRPK2 (human) = SRPK2 (human) (UniProt P78362)
STK10 (human) = STK10 (human) (UniProt O94804)
TAOK3 (human) = TAOK3 (human) (UniProt Q9H2K8)
TEC (human) = TEC (human) (UniProt P42680)
ULK2 (human) = ULK2 (human) (UniProt Q8IYT8)
ZAP70 (human) = ZAP70 (human) (UniProt P43403)
EPHB4 (human) = EPHB4 (human) (UniProt P54760)

Sequence of GSK3A (human) (P49840 whole entry, looked up): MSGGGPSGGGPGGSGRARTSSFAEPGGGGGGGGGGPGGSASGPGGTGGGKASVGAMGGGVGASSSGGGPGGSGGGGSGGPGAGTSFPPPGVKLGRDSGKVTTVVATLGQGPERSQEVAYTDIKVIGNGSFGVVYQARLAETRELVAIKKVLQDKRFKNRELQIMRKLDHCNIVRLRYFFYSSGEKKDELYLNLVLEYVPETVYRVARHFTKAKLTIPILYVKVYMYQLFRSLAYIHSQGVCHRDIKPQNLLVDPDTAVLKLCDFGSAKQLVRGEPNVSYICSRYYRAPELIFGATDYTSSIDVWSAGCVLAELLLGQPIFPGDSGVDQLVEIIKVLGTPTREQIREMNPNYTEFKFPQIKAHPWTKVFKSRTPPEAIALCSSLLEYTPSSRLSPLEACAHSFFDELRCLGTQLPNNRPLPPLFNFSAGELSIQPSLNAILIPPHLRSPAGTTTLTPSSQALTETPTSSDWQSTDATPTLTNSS
Sequence of DAPK2 (human) (Q9UIK4 whole entry, looked up): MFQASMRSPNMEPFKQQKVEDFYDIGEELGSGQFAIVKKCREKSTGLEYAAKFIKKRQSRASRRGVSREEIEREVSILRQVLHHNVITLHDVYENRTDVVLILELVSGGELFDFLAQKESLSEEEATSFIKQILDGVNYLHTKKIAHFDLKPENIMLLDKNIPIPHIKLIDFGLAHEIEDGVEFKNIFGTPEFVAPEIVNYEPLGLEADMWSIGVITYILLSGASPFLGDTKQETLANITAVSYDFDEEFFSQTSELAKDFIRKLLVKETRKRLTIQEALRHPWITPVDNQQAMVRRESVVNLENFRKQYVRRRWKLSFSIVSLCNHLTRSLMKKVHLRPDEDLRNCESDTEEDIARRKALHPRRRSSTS
Sequence of AKT2 (human) (P31751 whole entry, looked up): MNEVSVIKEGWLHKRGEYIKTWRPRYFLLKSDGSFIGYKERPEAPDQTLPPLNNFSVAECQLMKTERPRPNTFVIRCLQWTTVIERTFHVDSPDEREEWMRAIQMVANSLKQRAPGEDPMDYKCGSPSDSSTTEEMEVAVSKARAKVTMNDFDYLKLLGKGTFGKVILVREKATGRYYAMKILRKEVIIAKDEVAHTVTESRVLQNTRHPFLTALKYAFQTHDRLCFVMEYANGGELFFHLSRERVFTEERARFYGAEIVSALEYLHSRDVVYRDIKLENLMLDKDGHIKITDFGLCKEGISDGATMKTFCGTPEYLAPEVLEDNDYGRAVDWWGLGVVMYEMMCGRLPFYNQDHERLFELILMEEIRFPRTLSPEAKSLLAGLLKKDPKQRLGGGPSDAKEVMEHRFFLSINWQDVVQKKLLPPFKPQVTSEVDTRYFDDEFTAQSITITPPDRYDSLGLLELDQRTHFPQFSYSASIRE
Sequence of TAOK3 (human) (Q9H2K8 whole entry, looked up): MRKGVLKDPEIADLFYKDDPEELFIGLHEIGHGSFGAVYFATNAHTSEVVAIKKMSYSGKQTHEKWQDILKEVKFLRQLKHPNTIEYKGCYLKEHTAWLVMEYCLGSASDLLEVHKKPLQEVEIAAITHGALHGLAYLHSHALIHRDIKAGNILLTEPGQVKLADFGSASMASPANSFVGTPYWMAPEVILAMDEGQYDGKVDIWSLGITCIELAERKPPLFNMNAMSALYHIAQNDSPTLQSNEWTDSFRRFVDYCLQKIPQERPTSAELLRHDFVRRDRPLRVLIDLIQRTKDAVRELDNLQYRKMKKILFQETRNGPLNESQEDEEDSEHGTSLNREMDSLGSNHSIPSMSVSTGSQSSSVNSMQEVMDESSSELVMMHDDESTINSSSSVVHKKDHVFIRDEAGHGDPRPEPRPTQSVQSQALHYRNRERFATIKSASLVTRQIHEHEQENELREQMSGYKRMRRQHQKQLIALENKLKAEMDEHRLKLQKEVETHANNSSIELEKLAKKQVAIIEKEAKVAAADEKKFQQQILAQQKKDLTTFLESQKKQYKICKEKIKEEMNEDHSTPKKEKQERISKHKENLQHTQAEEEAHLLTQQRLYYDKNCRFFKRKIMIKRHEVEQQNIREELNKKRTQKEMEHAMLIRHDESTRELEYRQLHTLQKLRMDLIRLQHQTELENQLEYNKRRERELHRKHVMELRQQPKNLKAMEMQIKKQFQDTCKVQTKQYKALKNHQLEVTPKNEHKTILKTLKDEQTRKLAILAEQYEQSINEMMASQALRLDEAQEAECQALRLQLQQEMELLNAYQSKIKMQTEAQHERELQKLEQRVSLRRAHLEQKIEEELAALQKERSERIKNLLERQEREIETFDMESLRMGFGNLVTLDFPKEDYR
Sequence of LIMK1 (human) (P53667 whole entry, looked up): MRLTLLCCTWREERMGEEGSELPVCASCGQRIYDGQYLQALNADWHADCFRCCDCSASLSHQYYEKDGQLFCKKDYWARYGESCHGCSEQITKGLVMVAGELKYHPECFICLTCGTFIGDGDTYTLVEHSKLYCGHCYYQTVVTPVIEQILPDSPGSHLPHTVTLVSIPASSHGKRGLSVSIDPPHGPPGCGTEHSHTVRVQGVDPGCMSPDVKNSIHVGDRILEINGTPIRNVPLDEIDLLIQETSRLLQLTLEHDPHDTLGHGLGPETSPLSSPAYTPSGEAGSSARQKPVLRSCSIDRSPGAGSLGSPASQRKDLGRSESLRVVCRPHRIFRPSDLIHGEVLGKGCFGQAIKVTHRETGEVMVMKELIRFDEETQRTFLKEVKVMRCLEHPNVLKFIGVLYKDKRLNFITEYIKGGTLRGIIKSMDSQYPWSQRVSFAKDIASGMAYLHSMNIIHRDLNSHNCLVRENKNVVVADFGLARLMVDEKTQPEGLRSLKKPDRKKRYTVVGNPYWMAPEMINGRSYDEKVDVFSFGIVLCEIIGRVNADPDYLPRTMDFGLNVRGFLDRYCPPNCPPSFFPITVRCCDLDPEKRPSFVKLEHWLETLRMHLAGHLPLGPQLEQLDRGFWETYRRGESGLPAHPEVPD
Sequence of SRPK2 (human) (P78362 whole entry, looked up): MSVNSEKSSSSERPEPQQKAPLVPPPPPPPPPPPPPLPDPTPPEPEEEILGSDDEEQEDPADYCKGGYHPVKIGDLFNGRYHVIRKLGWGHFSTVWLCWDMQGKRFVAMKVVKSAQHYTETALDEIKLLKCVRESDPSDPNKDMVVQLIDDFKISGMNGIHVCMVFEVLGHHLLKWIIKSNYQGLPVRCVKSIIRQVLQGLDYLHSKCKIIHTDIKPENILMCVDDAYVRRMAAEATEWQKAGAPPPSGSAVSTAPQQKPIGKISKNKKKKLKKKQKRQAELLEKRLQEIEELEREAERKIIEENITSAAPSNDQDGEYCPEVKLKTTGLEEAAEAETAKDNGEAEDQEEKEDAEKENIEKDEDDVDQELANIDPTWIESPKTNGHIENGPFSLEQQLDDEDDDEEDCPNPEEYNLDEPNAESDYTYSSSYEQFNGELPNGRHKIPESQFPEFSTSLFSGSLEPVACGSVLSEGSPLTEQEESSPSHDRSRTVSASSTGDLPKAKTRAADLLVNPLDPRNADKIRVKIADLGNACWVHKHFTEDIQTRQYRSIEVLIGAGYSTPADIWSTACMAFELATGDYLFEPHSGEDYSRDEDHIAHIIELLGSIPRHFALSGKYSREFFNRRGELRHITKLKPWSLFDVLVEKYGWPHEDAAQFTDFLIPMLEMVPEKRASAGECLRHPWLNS
Sequence of STK10 (human) (O94804 whole entry, looked up): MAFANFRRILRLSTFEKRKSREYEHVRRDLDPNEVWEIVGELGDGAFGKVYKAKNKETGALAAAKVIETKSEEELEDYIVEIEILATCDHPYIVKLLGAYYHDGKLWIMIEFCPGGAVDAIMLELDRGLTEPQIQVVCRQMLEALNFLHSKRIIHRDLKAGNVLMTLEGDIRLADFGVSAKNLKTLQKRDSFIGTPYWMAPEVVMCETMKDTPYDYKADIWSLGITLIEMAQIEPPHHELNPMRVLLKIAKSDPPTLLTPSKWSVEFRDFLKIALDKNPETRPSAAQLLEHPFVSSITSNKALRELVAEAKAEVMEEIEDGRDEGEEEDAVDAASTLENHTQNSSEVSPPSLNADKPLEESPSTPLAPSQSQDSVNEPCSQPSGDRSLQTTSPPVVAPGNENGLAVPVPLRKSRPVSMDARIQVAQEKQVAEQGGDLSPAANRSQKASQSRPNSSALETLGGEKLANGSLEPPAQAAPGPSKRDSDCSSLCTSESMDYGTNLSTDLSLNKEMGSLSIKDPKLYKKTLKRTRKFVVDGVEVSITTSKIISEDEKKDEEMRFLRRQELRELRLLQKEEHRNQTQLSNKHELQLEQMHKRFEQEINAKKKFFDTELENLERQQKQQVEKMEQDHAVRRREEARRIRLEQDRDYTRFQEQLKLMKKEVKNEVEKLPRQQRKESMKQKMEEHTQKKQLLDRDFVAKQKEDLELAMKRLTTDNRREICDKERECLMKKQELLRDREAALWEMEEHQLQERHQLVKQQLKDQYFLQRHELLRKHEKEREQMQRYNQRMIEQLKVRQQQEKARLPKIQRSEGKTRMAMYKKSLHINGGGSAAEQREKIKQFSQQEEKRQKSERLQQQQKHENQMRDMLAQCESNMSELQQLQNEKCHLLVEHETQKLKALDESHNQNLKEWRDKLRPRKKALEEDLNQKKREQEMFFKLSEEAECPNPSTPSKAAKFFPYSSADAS
Sequence of PTK6 (human) (Q13882 whole entry, looked up): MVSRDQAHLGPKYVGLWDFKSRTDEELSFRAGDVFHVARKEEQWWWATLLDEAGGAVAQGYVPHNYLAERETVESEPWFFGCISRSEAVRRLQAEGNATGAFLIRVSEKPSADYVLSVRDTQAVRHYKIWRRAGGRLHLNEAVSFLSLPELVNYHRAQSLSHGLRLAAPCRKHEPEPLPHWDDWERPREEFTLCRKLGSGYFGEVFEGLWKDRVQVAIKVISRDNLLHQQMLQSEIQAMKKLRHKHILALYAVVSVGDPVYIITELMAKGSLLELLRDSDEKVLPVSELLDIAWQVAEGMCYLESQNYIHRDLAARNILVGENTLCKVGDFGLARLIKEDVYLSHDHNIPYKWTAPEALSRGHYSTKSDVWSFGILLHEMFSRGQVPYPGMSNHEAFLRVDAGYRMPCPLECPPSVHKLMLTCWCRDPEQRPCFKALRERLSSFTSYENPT

`Cn1cnc2cc3c(Nc4cccc(Br)c4)ncnc3cc21` gave a residual activity (AKT2 (human)) of 106%, a residual activity (BMX (human)) of 96.6% and a residual activity (BRSK1 (human)) of 81.6%. The residual activity (CAMK2D (human)) was 92.2%, the residual activity (CDK1 CCNB1 (human)) was 97.9% and the residual activity (CDK5 CDK5R1 p25 (human)) was 88%. The residual activity (CLK4 (human)) was 88.5%, the residual activity (CSNK1D (human)) was 93.9% and the residual activity (DAPK2 (human)) was 92.5%. It also gave a residual activity (DSTYK (human)) of 97.5%, a residual activity (EPHA4 (human)) of 80.7% and a residual activity (EPHB1 (human)) of 72.2%. The residual activity (GRK7 (human)) was 106%, the residual activity (GSK3A (human)) was 100% and the residual activity (INSR (human)) was 94.4%. For the same compound, the residual activity (LIMK1 (human)) was 99%, the residual activity (LRRK2 (human)) was 68.2% and the residual activity (MAP2K2 (human)) was 101%. The residual activity (MAP3K8 (human)) was 90.1%, the residual activity (MST4 (human)) was 94.3% and the residual activity (NEK11 (human)) was 101%. For the same compound, the residual activity (NEK4 (human)) was 96.8%, the residual activity (NTRK1 (human)) was 90.8% and the residual activity (NUAK2 (human)) was 102%. The residual activity (PAK1 (human)) was 91.4%, the residual activity (PDGFRB (human)) was 99.7% and the residual activity (PRKCG (human)) was 93.9%. For the same compound, the residual activity (PRKCI (human)) was 100%, the residual activity (PRKCZ (human)) was 102% and the residual activity (PTK2 (human)) was 108%. For the same compound, the residual activity (PTK2B (human)) was 92.7%, the residual activity (PTK6 (human)) was 54% and the residual activity (RPS6KA2 KD1 KD2 (human)) was 79.4%. For the same compound, the residual activity (SGK2 (human)) was 104%, the residual activity (SRC (human)) was 81.2% and the residual activity (SRPK2 (human)) was 97.1%. The residual activity (STK10 (human)) was 35.8%, the residual activity (TAOK3 (human)) was 97.6% and the residual activity (TEC (human)) was 123%. For the same compound, the residual activity (ULK2 (human)) was 74.8% and the residual activity (ZAP70 (human)) was 110%.

`O=C1Cc2c([nH]c3ccc(Br)cc23)-c2ccccc2N1` showed a residual activity (AKT2 (human)) of 104%, a residual activity (BMX (human)) of 99.6% and a residual activity (BRSK1 (human)) of 60.5%. The residual activity (CAMK2D (human)) was 91.1%, the residual activity (CDK1 CCNB1 (human)) was 80.6% and the residual activity (CDK5 CDK5R1 p25 (human)) was 64.8%. For the same compound, the residual activity (CLK4 (human)) was 91.1%, the residual activity (CSNK1D (human)) was 104% and the residual activity (DAPK2 (human)) was 100%. The residual activity (DSTYK (human)) was 98.6%, the residual activity (EPHA4 (human)) was 96.1% and the residual activity (EPHB1 (human)) was 93.5%. It also gave a residual activity (EPHB4 (human)) of 100%, a residual activity (GRK7 (human)) of 100% and a residual activity (GSK3A (human)) of 5.87%. For the same compound, the residual activity (INSR (human)) was 101%, the residual activity (LIMK1 (human)) was 99.2% and the residual activity (LRRK2 (human)) was 78.7%. For the same compound, the residual activity (MAP2K2 (human)) was 116%, the residual activity (MAP3K8 (human)) was 98.6% and the residual activity (MST4 (human)) was 108%. It also gave a residual activity (NEK11 (human)) of 107%, a residual activity (NEK4 (human)) of 98.9% and a residual activity (NUAK2 (human)) of 71.1%. It also gave a residual activity (PAK1 (human)) of 85%, a residual activity (PDGFRB (human)) of 93.2% and a residual activity (PRKCG (human)) of 93.8%. It also gave a residual activity (PRKCI (human)) of 89.1%, a residual activity (PRKCZ (human)) of 98.3% and a residual activity (PTK2 (human)) of 94.3%. For the same compound, the residual activity (PTK2B (human)) was 102%, the residual activity (PTK6 (human)) was 87.7% and the residual activity (RPS6KA2 KD1 KD2 (human)) was 94.9%. It also gave a residual activity (SGK2 (human)) of 98.9%, a residual activity (SRC (human)) of 71.4% and a residual activity (SRPK2 (human)) of 98.9%. For the same compound, the residual activity (STK10 (human)) was 89.8%, the residual activity (TAOK3 (human)) was 82.8% and the residual activity (TEC (human)) was 96.4%. The residual activity (ULK2 (human)) was 90.1% and the residual activity (ZAP70 (human)) was 93.6%.

With `Nc1nccc(-c2c(-c3ccc(F)cc3)ncn2C2CCNCC2)n1` the residual activity (AKT2 (human)) was 94.8%, the residual activity (BMX (human)) was 92.9% and the residual activity (BRSK1 (human)) was 99.7%. The residual activity (CAMK2D (human)) was 100%, the residual activity (CDK1 CCNB1 (human)) was 96.8% and the residual activity (CDK5 CDK5R1 p25 (human)) was 95.4%. For the same compound, the residual activity (CLK4 (human)) was 96.9%, the residual activity (CSNK1D (human)) was 1.25% and the residual activity (DAPK2 (human)) was 94.1%. For the same compound, the residual activity (DSTYK (human)) was 102%, the residual activity (EPHA4 (human)) was 99.8% and the residual activity (EPHB1 (human)) was 99.9%. For the same compound, the residual activity (EPHB4 (human)) was 91.5%, the residual activity (GRK7 (human)) was 106% and the residual activity (GSK3A (human)) was 97.5%. For the same compound, the residual activity (LIMK1 (human)) was 89.6%, the residual activity (LRRK2 (human)) was 99.9% and the residual activity (MAP2K2 (human)) was 105%. It also gave a residual activity (MAP3K8 (human)) of 102%, a residual activity (MST4 (human)) of 98.4% and a residual activity (NEK11 (human)) of 105%. It also gave a residual activity (NEK4 (human)) of 99.5%, a residual activity (NTRK1 (human)) of 100% and a residual activity (NUAK2 (human)) of 122%. The residual activity (PAK1 (human)) was 97.4%, the residual activity (PDGFRB (human)) was 98.7% and the residual activity (PRKCG (human)) was 87.8%. For the same compound, the residual activity (PRKCI (human)) was 98.5%, the residual activity (PRKCZ (human)) was 106% and the residual activity (PTK2 (human)) was 94.1%. For the same compound, the residual activity (PTK2B (human)) was 94.6%, the residual activity (PTK6 (human)) was 73.4% and the residual activity (RPS6KA2 KD1 KD2 (human)) was 99.3%. It also gave a residual activity (SGK2 (human)) of 96.9%, a residual activity (SRC (human)) of 94.2% and a residual activity (SRPK2 (human)) of 96.4%. It also gave a residual activity (STK10 (human)) of 90.3%, a residual activity (TAOK3 (human)) of 95.3% and a residual activity (TEC (human)) of 110%. For the same compound, the residual activity (ULK2 (human)) was 113% and the residual activity (ZAP70 (human)) was 92.3%.

Compound `COc1ccc(CNC(=O)Nc2ncc([N+](=O)[O-])s2)cc1` has a residual activity (AKT2 (human)) of 103%, a residual activity (BMX (human)) of 90.8% and a residual activity (BRSK1 (human)) of 102%. For the same compound, the residual activity (CAMK2D (human)) was 98.3%, the residual activity (CDK1 CCNB1 (human)) was 85.1% and the residual activity (CDK5 CDK5R1 p25 (human)) was 97.7%. It also gave a residual activity (CLK4 (human)) of 92.8%, a residual activity (DAPK2 (human)) of 93.3% and a residual activity (DSTYK (human)) of 96.2%. For the same compound, the residual activity (EPHA4 (human)) was 101%, the residual activity (EPHB1 (human)) was 102% and the residual activity (EPHB4 (human)) was 100%. It also gave a residual activity (GRK7 (human)) of 103%, a residual activity (GSK3A (human)) of 13.5% and a residual activity (LIMK1 (human)) of 96%. For the same compound, the residual activity (LRRK2 (human)) was 87.7%, the residual activity (MAP2K2 (human)) was 73.5% and the residual activity (MAP3K8 (human)) was 96.2%. For the same compound, the residual activity (MST4 (human)) was 113%, the residual activity (NEK11 (human)) was 104% and the residual activity (NEK4 (human)) was 91%. For the same compound, the residual activity (NUAK2 (human)) was 89.9%, the residual activity (PAK1 (human)) was 94.2% and the residual activity (PDGFRB (human)) was 125%. The residual activity (PRKCG (human)) was 99.8%, the residual activity (PRKCI (human)) was 94.4% and the residual activity (PRKCZ (human)) was 96.3%. It also gave a residual activity (PTK2 (human)) of 101%, a residual activity (PTK2B (human)) of 83.1% and a residual activity (PTK6 (human)) of 99.6%. The residual activity (RPS6KA2 KD1 KD2 (human)) was 100%, the residual activity (SGK2 (human)) was 99.5% and the residual activity (SRC (human)) was 101%. For the same compound, the residual activity (SRPK2 (human)) was 99.6%, the residual activity (STK10 (human)) was 94.3% and the residual activity (TAOK3 (human)) was 98.5%. For the same compound, the residual activity (TEC (human)) was 97.7%, the residual activity (ULK2 (human)) was 93.4% and the residual activity (ZAP70 (human)) was 102%.
